Measurements from patent US20210169837A1, “COMPOSITION FOR REDUCING NEW-ONSET DIABETES” (MOCHIDA PHARMACEUTICAL CO., LTD., priority 2012, published 2021).

Tests used:
[1] = test system: Human fetal rhabdomyosarcoma cell line (RD cell, ATCC); assay: 2-3H-deoxyglucose uptake by differentiated skeletal muscle cells; format: cell-based; details: for Uptake of radioactivity (2-3H-deoxyglucose) per 1 μg of protein: statin = 30 μM simvastatin, EPA = 50 μM sodium eicosapentate
Description: (1) Human fetal rhabdomyosarcoma cell line (RD cell, ATCC) was inoculated in 24 well plate and cultured in a growth medium (10% fetal bovine serum (FCS), Dulbecco's modified Eagle medium (DMEM), low glucose, 1% nonessential amino acid) to confluency. (2) The cells were then cultivated in differentiation medium (2% horse serum (HS), Dulbecco's modified Eagle medium (DMEM), low glucose, 1% nonessential amino acid) for 3 to 5 days for differentiation into muscle cell.
(3) After the incubation, the medium was removed by aspiration, and the cells were incubated in an uptake buffer (140 mM NaCl, 5 mM KCl, 2.5 mM MgSO4, 20 mM HEPES, 1 mM CaCl2, pH=7.4) supplemented with 10 μM of 2-3H-deoxyglucose at 37° C. for 12 minutes. (4) After the incubation, the cells were washed 4 times with cold stop solution (PBS(−)supplemented with 10 mM glucose).
The PBS(−) contained 0.2 g of NaH2PO4.2H2O, 3.225 g of Na2HPO4.12H2O, and 8 g of NaCl in 1 L, and the pH was at 7.2 to 7.4.
(5) After the washing, 500 μL/well of aqueous solution of 0.4N sodium hydroxide was added, and the cells were lyzed by heating to 56° for 20 minutes. (6) 300 μL of the well content (cell lysate) was mixed with 4 mL of Atomlight (manufactured by PerkinElmer), and ^3H count was measured with a liquid scintillation counter. The well content (cell lysate) was also measured for its protein concentration to calculate the ^3H count per 1 μg of the protein.
FIG. 1 is the graph showing the uptake of radioactivity (y axis) in relation to the incubation time (x axis) for each group.

[2] = test system: aged people of at least 66 years old administered with statin; details: compared to the case of pravastatin; cited from earlier work

SMILES: CCC(C)(C)C(=O)O[C@H]1C[C@@H](C)C=C2C=C[C@H](C)[C@H](CC[C@@H]3C[C@@H](O)CC(=O)O3)[C@H]21 [Statin, simvastatin]
- rate of decrease of radioactivity uptake ([1]; 48 hr of incubation, vs control group, 30 μM simvastatin (with or without 50 μM EPA)): about 73%
- Uptake of radioactivity (2-3H-deoxyglucose) per 1 μg of protein ([1]; incubation time 1 hr): 563 dpm/μg protein
- Uptake of radioactivity (2-3H-deoxyglucose) per 1 μg of protein ([1]; incubation time 6 hr): 489 dpm/μg protein
- Uptake of radioactivity (2-3H-deoxyglucose) per 1 μg of protein ([1]; incubation time 24 hr): 343 dpm/μg protein
- Uptake of radioactivity (2-3H-deoxyglucose) per 1 μg of protein ([1]; incubation time 48 hr): 170 dpm/μg protein

SMILES: CC(C)c1c(C(=O)Nc2ccccc2)c(-c2ccccc2)c(-c2ccc(F)cc2)n1CC[C@@H](O)C[C@@H](O)CC(=O)O [atorvastatin]
- risk of the incidence of the diabetes compared to pravastatin [2]: significantly increased

SMILES: CC[C@H](C)C(=O)O[C@H]1C[C@@H](C)C=C2C=C[C@H](C)[C@H](CC[C@@H]3C[C@@H](O)CC(=O)O3)[C@H]21 [lovastatin]
- risk of the incidence of the diabetes compared to pravastatin [2]: no significant difference

SMILES: CC(C)c1nc(N(C)S(C)(=O)=O)nc(-c2ccc(F)cc2)c1/C=C/[C@@H](O)C[C@@H](O)CC(=O)O [rosuvastatin]
- risk of the incidence of the diabetes compared to pravastatin [2]: significantly increased
